For data set [1] the following is noted: in vivo; cited from earlier work.
The nature of data set [2]: Effect of relative humidity on adsorption of water vapour (deliquescence). The class given is physicochemical.

Molecules are shown by their SMILES.

With `CN(C)C(=O)Oc1ccc[n+](C)c1` [Pyridostigmine, (1-methylpyridin-1-ium-3-yl) N,N-dimethylcarbamate], the biological half-life in data set [1] is recorded as 2-3 hours.
Consider `CN(C)C(=O)Oc1ccc[n+](C)c1` [pyridostigmine bromide], for which, in data set [2], the “relative humidity (RH) at which deliquescence is exhibited” value is 33%.
